In a melting point compilation (Tetko et al.; mined from patent text by program, amines drawn as free bases though some values may be those of a salt):

SMILES | melting point [°C]
CC(C)[C@H]1CC[C@H](C(=O)COS(=O)(=O)c2ccccc2)CC1 | 48 to 49
COc1ccc(-c2sc3cc(OC)ccc3c2C(=O)c2ccc(O)cc2)cc1 | 114 to 116
O=C(c1ccc(F)c(F)c1)N1CCC[C@H](c2nc(-c3cscn3)no2)C1 | 107 to 109
CC(C)CC1=CC(c2ccccc2)C2=C(CCCC2=O)N1 (stereo unspecified) | 182 to 184
Cc1nc(-n2ccc(OCc3ccc(F)cc3)cc2=O)sc1C(=O)NCc1ccc(F)cc1 | 249 to 251
COC(=O)C1=C(C)NC(C)=C(C(=O)OCC2CCCO2)C1c1cccc(C(F)(F)F)c1 (stereo unspecified) | 108 to 110
O=[N+]([O-])c1ccc(SCCc2c[nH]cn2)cc1 | 167 to 168
Cn1nc(N)c2c(F)cccc21 | 125 to 127
CCOCc1nc2cnc3cc(OCCNC(=O)OC(C)(C)C)ccc3c2n1CC1COC(C)(C)O1 (stereo unspecified) | 152 to 153
CC(=O)CCc1c(C)c(OC(C)=O)c(C)c(C)c1OC(C)=O | 85 to 87.5
CC(=O)N1N=C(c2ccc([N+](=O)[O-])c(C)c2)c2cc3c(cc2CC1C(N)=O)OCO3 (stereo unspecified) | 157 to 161
N#Cc1ccc(N(Cc2ccc(OS(N)(=O)=O)cc2)n2cnnc2)cc1-c1ccoc1 | 195 to 196
COC(=O)CCc1oc(=O)[nH]c1-c1ccc(C(F)(F)F)cc1 | 156 to 157
CCCC[C@H](NC(=O)[C@H](CC(C)C)NC(=O)c1cc(F)cc(F)c1)C(=O)CSCc1ccco1 | 125 to 126
Cc1ccc(CCc2nc3cc(-c4ccc(S(=O)(=O)N(C)C)cc4)cnc3[nH]2)nc1N | 157
COCc1ccc(OC)c(Br)c1O | 98 to 100
CCN1CCN(c2cccc3ccc(-c4cccc(NS(C)(=O)=O)c4)cc23)CC1 | 100 to 101
CC1(C)OC(c2ccc(S(C)(=O)=O)c(F)c2)=C(c2cccc(Cl)c2)C1=S | 105 to 106
CCCCCCCc1ncc(CO)[nH]1 | 82 to 84
O=C(O)c1ccc2c(c1)C(=O)C(=Cc1cccs1)O2 | 310 to 312
NS(=O)(=O)c1ccc(-c2nc(-c3cnn4c(C(F)(F)F)cc(-c5ccc(C(F)(F)F)cc5)nc34)no2)s1 | 272
OCCN1CCN(c2cc(Cl)nnc2Cl)CC1 | 139 to 141
CC12CCC(O)CC1=CCC1C2CCC2(C)C(=NC3CC3)CCC12 (stereo unspecified) | 187
COc1cc(Nc2c(C#N)cnc3cc(/C=C/CCN4CCCC4)c(OC)cc23)c(Cl)cc1Cl | 158 to 159

SMILES | melting point [°C]
N#Cc1ccc(S(=O)(=O)N2CCN(C(=O)C3CCN(c4ccncn4)CC3)CC2)cc1 | 180 to 181
CCc1ccc(Nc2c(-c3nnc(CC)o3)ccc(F)c2F)c(F)c1 | 82 to 83
CCN(CC)c1ccc2c(c1)OC(C(F)(F)F)C(C(=O)O)=C2 (stereo unspecified) | 214 to 215
Cc1noc(NS(=O)(=O)c2c(Cl)sc(Cl)c2Br)c1Br | 146 to 149
CC(Cc1cccc(C(F)(F)F)c1)N(CC(=O)O)Cc1ccccc1 (stereo unspecified) | 80
N=C(N)c1ccc2cc(OC(=O)CCCC3CCCCC3)ccc2c1 | 189 to 193
O=C(O)CS(=O)(=O)c1ccc2c(-c3ccccc3F)noc2c1Cl | 204
Oc1nc(Cl)n(-c2ccccc2)n1 | 147 to 149
CN(C)C(=O)Nc1snc(S(C)(=O)=O)c1C#N | 243 to 244
Cc1onc(NS(=O)(=O)c2ccccc2)c1Br | 128 to 130
CCCCN1C(=O)CC(C(=O)Nc2nccs2)C(=O)c2ccc(Cl)cc21 (stereo unspecified) | 238 to 240
CC(C)(C(=O)O)n1c(=O)[nH]c2ccc(F)cc2c1=O | 249 to 253
Oc1ccc2c(c1)C[C@H](O)[C@H](O)C2 (relative stereo) | 193 to 196
CSC1=NC2C=C(C(=O)NCC3CC3)C(NC(=O)c3cc(C(F)(F)F)nn3-c3ncccc3Cl)=C(Cl)C2S1 (stereo unspecified) | 221 to 223
COc1cc(OC)c(CSC(C)(C)CC(=O)O)c(OC)c1 | 103 to 105
CC(C)OC(=O)C1=C(c2cccc([N+](=O)[O-])c2)N2C(=O)N(C)NC2=NC1C (stereo unspecified) | 255 to 256
COc1cc(C(C)=O)cc(OC)c1OCCCN1CCC(c2noc3cc(F)ccc23)CC1 | 107 to 108
COc1cc(NC(C)=O)c(Cl)cc1C(=O)CCCCN1CCCCC1 | 74 to 75
COc1cc(OCCN(C)C)ccc1/C=C/c1cc(/C=C/c2ccc3cc[nH]c3c2)[nH]n1 | 109 to 112
COCCCNc1cc(C(F)(F)F)ccc1N | 69 to 70
Cc1ccc(S(=O)(=O)n2c(I)cc3cc(F)cnc32)cc1 | 158
CCCSc1sc(C(=O)OCC)c2c1-c1nc(-c3ccccc3)sc1CC2 | 125 to 126
O=C(O)CC1(CC(O)=NO)CCCCC1 | 104

Other lines, results leading:

melting point [°C] | SMILES
114 to 115 | CS(=O)(=O)c1cccc(-c2ccccc2N)c1
178 | CC(C)(C)OC(=O)Nc1ccc(C#Cc2ccccn2)cc1N
132 to 134 | N#Cc1cc(NC(=O)c2ccccc2F)ccc1-n1nc(C(F)(F)F)cc1C(F)(F)F
103 to 104 | CCCCc1nc2cccc(C(=O)OC)c2n1Cc1ccc(-c2c(C#N)cnc3ccccc23)cc1
115 to 117 | Cc1cc(C(=O)c2cccc(Br)c2)c(O)cc1Cl
115 to 117 | O=CC(Cc1ccccc1)N1C(=O)c2ccccc2C1=O (stereo unspecified)
206 to 207 | CC(C)(Oc1ccc(NC(=O)c2cc(Cl)cc(Cl)c2)cc1)C(=O)O
144 to 146 | CN(C)c1c(CC(=O)O)cccc1C(=O)c1ccccc1
226 to 231 | O=C(Nc1ccc2oc(=O)[nH]c2c1)C(=O)N1CCC(Cc2ccc(F)cc2)CC1
168 | Cc1cccc(NC(=O)NCC(=O)N2[C@@H](c3ccccc3)CC[C@H]2c2ccccc2)c1
258 to 260 | Nc1sc2c(c1C(=O)c1ccc(Cl)c3ccccc13)CCC2
240 to 242 | COc1ccccc1-n1c(=O)[nH]c2ccc(-c3cccc(O)c3)nc21
120 to 123 | COC(=O)N1CCc2ccc(C(=O)CCC3CCN(C(=O)c4ccccc4)CC3)cc2CC1
155 to 175 | CC(C)(C)N(NC(=O)c1ccccc1)C(=O)c1ccco1
114 to 120 | COc1cccc2c(CCCCN(CC3CC3)C3COc4c(F)ccc(C(N)=O)c4C3)coc12 (stereo unspecified)
112 to 119 | CC(C(=O)O)c1ccc(-c2ccccc2)c(O)c1 (stereo unspecified)
254 to 256 | CS(=O)(=O)N1CCN(c2ccc(NC(=O)c3ccccc3-c3ccc(C(F)(F)F)cc3)cc2)CC1
177 to 179 | CCOc1ccccc1C(=O)Nc1c(OC)cccc1C(N)=O
181 to 182 | Cc1c[nH]c(=O)nc1OCc1ccccc1
117 to 119 | CC(=O)CC1CC2CN(C(=O)c3ccccc3)c3cccc(c32)C1=O (stereo unspecified)
153 to 154 | O=C(CN1C(=O)C(c2ccccc2)c2ccccc21)N1CCOCC1 (stereo unspecified)
161 to 162 | COc1nsc(NC(=O)[C@H](C)NC(=O)[C@H](Cc2ccccc2)NC(=O)OCc2ccccc2)n1
122 to 123 | Nc1sc2c(c1C(=O)c1cccs1)CCN(Cc1ccccc1)C2
80 to 82 | CCCc1c(OCCCC(=O)NCCCCc2cccnc2)ccc(C(C)=O)c1O
